Measurements taken from paper PMC2699469 (PLoS Pathogens, 2009).
Peptide text beside a SMILES is read from it. * marks the point of attachment. Palmitoyl = CCCCCCCCCCCCCCCC(=O)*

Each molecule was assayed on HIV-1 ENV-mediated fusion of Jurkat HXBc2 (effector) with Jurkat E6-1 (target) cells (assay: Cell-cell fusion inhibition assay (DiI/DiD lipophilic probes, flow cytometry)). Settings: Jurkat E6-1 + Jurkat HXBc2 1:1, co-incubated 6 h, eight peptide concentrations, FACS, Hill-type fit; at least four independent experiments, ± standard deviation.
Type: cell-based
Procedure: The protocol utilizing Jurkat E6-1 and Jurkat HXBc2 cells for a cell-cell fusion assay was previously described. In short, Jurkat E6-1 and Jurkat HXBc2 cells were labeled with DiI and DiD lipophilic fluorescent probes, respectively. The two cell populations were co-incubated, in a ratio of 1∶1, for 6 h in the presence of eight different concentrations of the inhibitory peptides. Prior to measurements the cells were washed, spinned, dissolved in PBS, and put on ice. Cells co-incubated without the presence of peptides served as an optimal fusion reference. Unlabeled cells that were handled similarly served as an intrinsic fluorescence control. Cells labeled separately with DiI or DiD were used to adjust the optimal separation of fluorescent signals. Jurkat HXBc2 cells labeled with DiI were co-incubated with Jurkat HXBc2 cells labeled with DiD for a fusion background that was subtracted from the measurements of the experiment. The following alterations were applied to the original protocol: (i) 5 µL of a 1 mg/mL DiI or DiD solution in dimethylsulfoxide (DMSO) was added to 1 mL of 4×10^6 cells/mL Jurkat E6-1 or Jurkat HXBc2 cells, respectively. (ii) For each data point 150,000 events were collected. Measurements were performed on a FACSort machine, upgraded to a FACSCalibur cell analyzer (Becton Dickinson). […] For the fitting, we uploaded the X and Y values of the raw data (after subtracting the background) into a nonlinear least squares regression (curve fitter) program that provided the IC50 value (A of the equation), as well as the c value.

| Molecule | IC50 [nM] |
| --- | --- |
| CCCCCCCCCCCCCCCC(=O)N[C@@H](CO)C(=O)NCC(=O)N[C@H](C(=O)N[C@@H](CC(=O)O)C(=O)N[C@@H](CCC(N)=O)C(=O)N[C@@H](CCC(=O)O)C(=O)N[C@@H](CCC(N)=O)C(=O)N[C@@H](CC(N)=O)C(=O)N[C@@H](CC(N)=O)C(=O)N[C@@H](CC(C)C)C(=O)N[C@H](C(=O)N[C@@H](CCCNC(=N)N)C(=O)N[C@@H](CC(C)C)C(=O)N[C@H](C(=O)N[C@@H](CCC(=O)O)C(=O)N[C@@H](C)C(=O)N[C@@H](CCC(N)=O)C(=O)N[C@H](C(=O)N[C@@H](Cc1c[nH]cn1)C(=O)N[C@@H](CCC(=O)O)C(=O)N[C@@H](CC(C)C)C(=O)N[C@@H](CCC(N)=O)C(=O)N[C@@H](CC(C)C)C(=O)N[C@H](C(=O)N[C@@H](CCC(N)=O)C(=O)N[C@@H](Cc1c[nH]c2ccccc12)C(=O)N[C@@H](CCCCN)C(=O)N[C@H](C(=O)N[C@@H](CCCCN)C(=O)N[C@@H](CCC(N)=O)C(=O)N[C@@H](CC(C)C)C(=O)N[C@@H](CC(C)C)C(=O)N[C@@H](C)C(=O)N[C@@H](CCCNC(=N)N)C(=O)N[C@H](C(=O)N[C@@H](CC(C)C)C(=O)N[C@@H](CCCCN)C(N)=O)[C@@H](C)CC)[C@@H](C)CC)[C@@H](C)O)[C@@H](C)CC)[C@@H](C)CC)[C@@H](C)O)[C@@H](C)CC [C16-N36 MUTe,g] (Palmitoyl-SGIDQEQNNLTRLIEAQIHELQLTQWKIKQLLARILK-NH2) | 162 ± 4 |
| CCCCCCCCCCCCCCCC(=O)NCCCC[C@H](NC(=O)[C@H](CC(C)C)NC(=O)[C@@H](NC(=O)[C@H](CCCNC(=N)N)NC(=O)[C@H](C)NC(=O)[C@H](CC(C)C)NC(=O)[C@H](CC(C)C)NC(=O)[C@H](CCC(N)=O)NC(=O)[C@H](CCCCN)NC(=O)[C@@H](NC(=O)[C@H](CCCCN)NC(=O)[C@H](Cc1c[nH]c2ccccc12)NC(=O)[C@H](CCC(N)=O)NC(=O)[C@@H](NC(=O)[C@H](CC(C)C)NC(=O)[C@H](CCC(N)=O)NC(=O)[C@H](CC(C)C)NC(=O)[C@H](CCC(=O)O)NC(=O)[C@H](Cc1c[nH]cn1)NC(=O)[C@@H](NC(=O)[C@H](CCC(N)=O)NC(=O)[C@H](C)NC(=O)[C@H](CCC(=O)O)NC(=O)[C@@H](NC(=O)[C@H](CC(C)C)NC(=O)[C@H](CCCNC(=N)N)NC(=O)[C@@H](NC(=O)[C@H](CC(C)C)NC(=O)[C@H](CC(N)=O)NC(=O)[C@H](CC(N)=O)NC(=O)[C@H](CCC(N)=O)NC(=O)[C@H](CCC(=O)O)NC(=O)[C@H](CCC(N)=O)NC(=O)[C@H](CC(=O)O)NC(=O)[C@@H](NC(=O)CNC(=O)[C@@H](N)CO)[C@@H](C)CC)[C@@H](C)O)[C@@H](C)CC)[C@@H](C)CC)[C@@H](C)O)[C@@H](C)CC)[C@@H](C)CC)C(N)=O [N36 MUTe,g-C16] (H-SGIDQEQNNLTRLIEAQIHELQLTQWKIKQLLARILK(Palmitoyl)-NH2) | 8.8 ± 4 |
| H-SGIDQEQNNLTRLIEAQIHELQLTQWKIKQLLARILK-NH2 [N36 MUTe,g, reference compound] | 936 ± 36 |
